Laboratory results from paper PMC3463134 (Chembiochem : a European journal of chemical biology, 2012).

T1: KtzI (Kutzneria sp. 744, UniProt A8CF85)
T1 sequence (A8CF85 1-424): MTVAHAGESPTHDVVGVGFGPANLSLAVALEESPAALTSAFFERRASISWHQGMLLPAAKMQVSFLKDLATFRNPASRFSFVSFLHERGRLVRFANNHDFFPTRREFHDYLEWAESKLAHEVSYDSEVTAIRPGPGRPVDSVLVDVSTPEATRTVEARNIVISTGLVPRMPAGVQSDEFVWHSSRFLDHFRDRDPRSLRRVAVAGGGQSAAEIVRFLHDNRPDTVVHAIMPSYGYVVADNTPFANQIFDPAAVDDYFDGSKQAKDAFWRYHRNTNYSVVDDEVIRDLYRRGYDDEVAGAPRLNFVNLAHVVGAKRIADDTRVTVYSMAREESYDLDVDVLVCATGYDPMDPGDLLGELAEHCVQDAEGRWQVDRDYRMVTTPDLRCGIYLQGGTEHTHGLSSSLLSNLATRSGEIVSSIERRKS


Experiments:
[1] = biological target: T1, KtzI; experiment: NADPH oxidation assay; format: biochemical; conditions: FAD, non-substrate effector (uncoupled NADPH oxidation)
[2] = substrate: NCCC[C@H](N)C(=O)O; experiment: purified protein; conditions: FAD cofactor; NAD(P)H and O2 cosubstrates; apparent kcat

Molecule	NADPH oxidation assay [1]	Km [2]	kcat [2]
NCCC[C@@H](N)C(=O)O [D-Orn]	L-Lys and D-Orn were observed to be non-substrate effectors of the enzyme		
NCCCC[C@H](N)C(=O)O [L-Lys]	L-Lys and D-Orn were observed to be non-substrate effectors of the enzyme		
KtzI (Kutzneria sp. 744) (protein) MTVAHAGESPTHDVVGVGFGPANLSLAVALEESPAALTSAFFERRASISWHQGMLLPAAKMQVSFLKDLATFRNPASRFSFVSFLHERGRLVRFANNHDFFPTRREFHDYLEWAESKLAHEVSYDSEVTAIRPGPGRPVDSVLVDVSTPEATRTVEARNIVISTGLVPRMPAGVQSDEFVWHSSRFLDHFRDRDPRSLRRVAVAGGGQSAAEIVRFLHDNRPDTVVHAIMPSYGYVVADNTPFANQIFDPAAVDDYFDGSKQAKDAFWRYHRNTNYSVVDDEVIRDLYRRGYDDEVAGAPRLNFVNLAHVVGAKRIADDTRVTVYSMAREESYDLDVDVLVCATGYDPMDPGDLLGELAEHCVQDAEGRWQVDRDYRMVTTPDLRCGIYLQGGTEHTHGLSSSLLSNLATRSGEIVSSIERRKS		0.091 ± 0.008 mM	6.96 ± 0.13 min⁻¹
